# Measurements taken from patent US6465443B2, “Method for inhibiting bone resorption” (Merck & Co., Inc., priority 1997, dated 2002).
# How the values were obtained:
# esophagus = details: oral administration, patients; cited from earlier work
# canine esophagus tissue = test: Esophageal irritation potential, dog model (esophageal infusion, histopathology); assay type: in vivo; details: for Esophageal irritation potential: low dosages on consecutive days (Group 7, Group 8)
# Procedure: The esophageal irritation potential of the bisphosphonates is evaluated using a dog model.
# The following solutions are prepared:
# (1) simulated gastric juice (pH about 2), i.e. the control solution.
# (5) simulated gastric juice (pH about 2) containing about 0.20 mg/mL of risedronate sodium on a risedronic acid active basis.
# (6) simulated gastric juice (pH about 2) containing about 4.0 mg/mL of tiludronate disodium on a tiludronic acid active basis.
# The simulated gastric juice is prepared by dissolving about 960 mg of pepsin (L-585,228000B003, Fisher Chemical) in about 147 mL of 0.90 (wt %) NaCl (aqueous), adding about 3 mL of 1.0 M HCl (aqueous), and adjusting the volume to about 300 mL with deionized water. The pH of the resulting solution is measured and if necessary is adjusted to about 2 using 1.0 M HCl (aqueous) or 1.0 M NaOH (aqueous).
# The animals used in the experiments are anesthetized and administered about 50 mL of the appropriate solution over about 30 minutes by infusion into the esophagus using an infusion pump and a rubber catheter. The following treatment experiments are run:
# Group 1: This control group contains four animals. Each animal is administered a dosage of about 50 mL of simulated gastric juice [solution (1)] on each of five consecutive days. […]
# Group 2: This group contains four animals. […]
# Group 3: This group contains five animals. […] The animals are sacrificed about 24 hours after the dose is administered.
# Group 4: This group contains five animals. […] The animals are sacrificed about 7 days after the dose is administered.
# Group 5: This group contains six animals. […] The animals are administered a total of four dosages. The animals are sacrificed about 7 days after the last dose is administered.
# Group 6: This group contains six animals. […] The animals are administered a total of eight dosages. The animals are sacrificed about four days after the last dose is administered.
# Group 7: This group contains eight animals. Each animal is administered a dosage of about 50 mL of simulated gastric juice containing about 0.20 mg/mL of risedronate [solution (5)] on each of five consecutive days. […]
# Group 8: This group contains four animals. Each animal is administered a dosage of about 50 mL of simulated gastric juice containing about 4.0 mg/mL of tiludronate [solution (6)] on each of five consecutive days. […]
# The esophagus from each sacrificed animal is removed and prepared for histopathology using standard techniques by embedding the tissue in paraffin, staining with hematoxylin and eosin. The sections are examined microscopically.
# bone resorption = details: early postmenopausal bone loss (Mortensen et al.); cited from earlier work
# bone mineralization = details: doses used clinically; cited from earlier work
# [1] = Group 4: 0.80 mg/mL, 1X, sacrifice 7 days after dosing
structure (smiles),measurement,setting,value
"NCCCC(O)(P(=O)(O)O)P(=O)(O)O [Alendronate, 4-amino-1-hydroxybutylidene-1,1-bisphosphonic acid monosodium trihydrate]",Adverse gastrointestinal (esophageal) effects associated with use,esophagus,associated with esophagitis and/or esophageal ulcers
same,Histo-pathology (esophagus),"canine esophagus tissue; Group 2 (n = 4): 0.20 mg/mL, about 50 mL in simulated gastric juice pH about 2, 1X daily for 5 days, sacrifice immediately after last dosing, listed as alendronate, monosodium trihydrate",deep ulceration of the epithelial surface and marked submucosal inflammation and vacuolation
same,Histo-pathology (esophagus),"canine esophagus tissue; Group 3 (n = 5): 0.80 mg/mL, about 50 mL in simulated gastric juice, 1X, sacrifice 24 hours after dosing, listed as alendronate, monosodium trihydrate",intact epithelial surface with very slight submucosal inflammation and vacuolation
same,Histo-pathology (esophagus),"canine esophagus tissue; Group 3 (n = 5): 0.80 mg/mL, about 50 mL in simulated gastric juice, 1X, sacrifice 24 hours after dosing, monosodium trihydrate",Intact epithelial
same,Histo-pathology (esophagus),"canine esophagus tissue; Group 4 (n = 5): 0.80 mg/mL, about 50 mL in simulated gastric juice, 1X, sacrifice 7 days after dosing, listed as alendronate, monosodium trihydrate",intact epithelium with either minimal inflammation (two of the five animals) or no inflammation (three of the five animals) and no vacuolation
same,Animals with minimal inflammation,canine esophagus tissue; [1],inflammation (2 of 5
same,Animals with no inflammation,canine esophagus tissue; [1],inflammation (3 of 5
same,Histo-pathology (esophagus),"canine esophagus tissue; Group 5 (n = 6): 0.80 mg/mL, about 50 mL in simulated gastric juice, 1X weekly for a total of 4 doses, sacrifice 7 days after last dosing, listed as alendronate, monosodium trihydrate",normal with an intact epithelium and absence of inflammatory cells in the submucosa
same,Histo-pathology (esophagus),"canine esophagus tissue; Group 5 (n = 6): 0.80 mg/mL, about 50 mL in simulated gastric juice, 1X weekly for a total of 4 doses, sacrifice 7 days after last dosing, monosodium trihydrate",Intact epithelium with
same,Histo-pathology (esophagus),"canine esophagus tissue; Group 6 (n = 6): 0.40 mg/mL, about 50 mL in simulated gastric juice, 2X weekly for 4 weeks, sacrifice immediately after last dosing (table; text: about four days after), listed as alendronate, monosodium trihydrate",deep ulceration of the epithelial surface and marked submucosal inflammation and vacuolation
"O=P(O)(O)C(O)(Cc1cccnc1)P(=O)(O)O [Risedronate, 1-hydroxy-2-(3-pyridinyl)-ethylidene-1,1-bisphosphonic acid]",Antiresorptive efficacy of cyclic dosing relative to continuous daily dosing,bone resorption,cyclic dosing is actually less effective than continuous daily dosing
same,Histo-pathology (esophagus),"canine esophagus tissue; Group 7 (n = 8): 0.20 mg/mL, about 50 mL in simulated gastric juice, 1X daily for 5 days, sacrifice immediately after last dosing, listed as risedronate",deep ulceration of the epithelial surface and marked submucosal inflammation and vacuolation
same,Animals with deep ulceration of epithelial surface,"canine esophagus tissue; Group 7: 0.20 mg/mL, 1X daily for 5 days, sacrifice immediately after last dosing",(4 of 8 animals).
same,Esophageal irritation potential,canine esophagus tissue,high
"O=P(O)(O)C(Sc1ccc(Cl)cc1)P(=O)(O)O [Tiludronate, (4-chlorophenyl)thiomethane-1,1-disphosphonic acid]",Histo-pathology (esophagus),"canine esophagus tissue; Group 8 (n = 4): 4.0 mg/mL, about 50 mL in simulated gastric juice, 1X daily for 5 days, sacrifice 24 hours after last dosing (table; text: immediately)",Slight submucosal
same,Histo-pathology (esophagus),"canine esophagus tissue; Group 8 (n = 4): 4.0 mg/mL, about 50 mL in simulated gastric juice, 1X daily for 5 days, sacrifice 24 hours after last dosing (table; text: immediately), listed as tiludronate",slight ulceration of the epithelial surface and slight submucosal inflammation and vacuolation
same,Animals with slight submucosal inflammation and vacuolation,"canine esophagus tissue; Group 8: 4.0 mg/mL, 1X daily for 5 days",vacuolation (3 of 4
same,Esophageal irritation potential,canine esophagus tissue,high
"CC(O)(P(=O)(O)O)P(=O)(O)O [etidronate, 1-hydroxyethane-1,1-diphosphonic acid]",Effect on bone mineralization,bone mineralization,impairs mineralization at doses used clinically
"NCCC(O)(P(=O)(O)O)P(=O)(O)O [pamidronate, 3-amino-1-hydroxypropylidene-1,1-bisphosphonic acid]",Adverse gastrointestinal (esophageal) effects associated with use,esophagus,associated with esophageal ulcers
